The text below walks through data of patent US12473304B2, “Heterocyclic PAD4 inhibitors” (BRISTOL-MYERS SQUIBB COMPANY, priority 2020, dated 2025).

human PAD4 (hPAD4), sequence (Q9UM07 whole entry): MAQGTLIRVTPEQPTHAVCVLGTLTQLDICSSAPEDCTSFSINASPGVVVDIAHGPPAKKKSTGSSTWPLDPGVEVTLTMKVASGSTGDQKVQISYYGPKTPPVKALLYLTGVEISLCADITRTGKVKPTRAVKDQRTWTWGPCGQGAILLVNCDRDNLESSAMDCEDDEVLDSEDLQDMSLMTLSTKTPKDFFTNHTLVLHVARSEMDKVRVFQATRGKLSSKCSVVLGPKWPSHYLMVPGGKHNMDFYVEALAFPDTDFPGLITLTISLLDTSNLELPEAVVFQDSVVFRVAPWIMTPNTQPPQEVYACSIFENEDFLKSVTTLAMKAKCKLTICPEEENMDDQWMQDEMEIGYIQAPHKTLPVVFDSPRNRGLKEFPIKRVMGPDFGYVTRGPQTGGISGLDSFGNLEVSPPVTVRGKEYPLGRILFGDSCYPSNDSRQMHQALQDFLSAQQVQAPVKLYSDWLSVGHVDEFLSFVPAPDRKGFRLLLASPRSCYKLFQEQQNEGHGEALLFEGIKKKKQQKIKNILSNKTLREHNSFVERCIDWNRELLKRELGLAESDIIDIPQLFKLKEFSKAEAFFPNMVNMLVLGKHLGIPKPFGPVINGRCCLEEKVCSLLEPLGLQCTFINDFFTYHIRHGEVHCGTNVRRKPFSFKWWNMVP

This assay deals with human PAD4 (hPAD4) (Homo sapiens (Human), UniProt Q9UM07). The assay is described as follows: RFMS Human PAD4 Functional Assay 1. Type of assay: biochemical. Particulars: RFMS assay 1; 5 nM hPAD4, 250 μM BAEE substrate, 50 μM calcium, 37° C. An outline of the steps:
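Recombinant hPAD4 (5 nM) was preincubated with compound (top 50 μM, 0.5% DMSO) for 30 min at 37 °C, then reacted with 250 μM BAEE for 90 min at 37 °C in pH 7.5 HEPES buffer with 50 μM calcium and 5 μM TPEN. Product was derivatized with phenyl glyoxal and quantified by RapidFire MS.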
In the case of `COc1cc(C(=O)N2CC3CCC2[C@@H]3N)cc2oc(-c3cc4ccc(-c5ccc6c(c5)C(=O)NC6)cc4n3CC3CC3)c(C)c12` (stereo partly drawn) [Example 150, 6-(2-(6-((7R)-7-Amino-2-azabicyclo[2.2.1]-heptane-2-carbonyl)-4-methoxy-3-methylbenzofuran-2-yl)-1-(cyclopropylmethyl)-1H-indol-6-yl)isoindolin-1-one], the IC50 amounted to 187 nM. With `COc1cc(C(=O)N2CC3CCC2[C@@H]3N)cc2oc(-c3cc4ccc(C)cc4n3CC3CC3)c(C)c12` (stereo partly drawn) [Example 151, ((7R)-7-Amino-2-azabicyclo[2.2.1]heptan-2-yl)(2-(1-(cyclopropylmethyl)-6-methyl-1H-indol-2-yl)-4-methoxy-3-methylbenzofuran-6-yl)methanone], the IC50 came to 325 nM. As for `COc1cc(C(=O)N2CC3CCC2[C@@H]3N)cc2oc(-c3cc4ccc(-c5ccc(C(N)=O)c(F)c5)cc4n3CC3CC3)c(C)c12` (stereo partly drawn) [Example 152, 4-(2-(6-((7R)-7-Amino-2-azabicyclo[2.2.1]heptane-2-carbonyl)-4-methoxy-3-methylbenzofuran-2-yl)-1-(cyclopropylmethyl)-1H-indol-6-yl)-2-fluorobenzamide], the figure is 192 nM; as for `COc1cc(C(=O)N2CC3CCC2[C@@H]3N)cc2oc(-c3cc4ccc(-c5ccc(C(N)=O)c(Cl)c5)cc4n3CC3CC3)c(C)c12` (stereo partly drawn) [Example 153, 4-(2-(6-((7R)-7-Amino-2-azabicyclo[2.2.1]heptane-2-carbonyl)-4-methoxy-3-methylbenzofuran-2-yl)-1-(cyclopropylmethyl)-1H-indol-6-yl)-2-chlorobenzamide], 628 nM; as for `COc1cc(C(=O)N2CC3CCC2[C@@H]3N)cc2oc(-c3cc4ccc(-c5ccc(O)c(F)c5)cc4n3CC3CC3)c(C)c12` (stereo partly drawn) [Example 154, ((7R)-7-Amino-2-azabicyclo[2.2.1]heptan-2-yl)(2-(1-(cyclopropylmethyl)-6-(3-fluoro-4-hydroxyphenyl)-1H-indol-2-yl)-4-methoxy-3-methylbenzofuran-6-yl)methanone], 1010 nM.

With `COc1cc(C(=O)N2CC3CCC2[C@@H]3N)cc2oc(-c3cc4ccc(C5CC5)cc4n3CC3CC3)c(C)c12` (stereo partly drawn) [Example 156, ((7R)-7-Amino-2-azabicyclo[2.2.1]heptan-2-yl)(2-(6-cyclopropyl-1-(cyclopropylmethyl)-1H-indol-2-yl)-4-methoxy-3-methylbenzofuran-6-yl)methanone], the 50% inhibitory concentration (IC50) was determined as 173 nM. The value for `COc1cc(C(=O)N2CC3CCC2[C@@H]3N)cc2oc(-c3cc4ccc(-c5ccn6c(C)nnc6c5)cc4n3CC3CC3)c(C)c12` (stereo partly drawn) [Example 157, ((7R)-7-Amino-2-azabicyclo[2.2.1]heptan-2-yl)(2-(1-(cyclopropylmethyl)-6-(3-methyl-[1,2,4]triazolo[4,3-a]pyridin-7-yl)-1H-indol-2-yl)-4-methoxy-3-methylbenzofuran-6-yl)methanone] was 95 nM; that for `COc1cc(C(=O)N2CC3CCC2[C@@H]3N)cc2oc(-c3cc4ccc(N5CCC(OC)CC5)cc4n3CC3CC3)c(C)c12` (stereo partly drawn) [Example 159, ((7R)-7-Amino-2-azabicyclo[2.2.1]heptan-2-yl)(2-(1-(cyclopropylmethyl)-6-(4-methoxypiperidin-1-yl)-1H-indol-2-yl)-4-methoxy-3-methylbenzofuran-6-yl)methanone] was 1210 nM; that for `COc1cc(C(=O)N2CC3CCC2[C@@H]3N)cc2oc(-c3cc4ccc(N5CCC(N)CC5)cc4n3CC3CC3)c(C)c12` (stereo partly drawn) [Example 160, ((7R)-7-Amino-2-azabicyclo[2.2.1]heptan-2-yl)(2-(6-(4-aminopiperidin-1-yl)-1-(cyclopropylmethyl)-1H-indol-2-yl)-4-methoxy-3-methylbenzofuran-6-yl)methanone] was 48 nM. As for `COc1cc(C(=O)N2C[C@H](N)C[C@@H](F)C2)cc2oc(-c3cc4ccccc4n3CC3CC3)c(C)c12` [Example 161, ((3R,5R)-3-Amino-5-fluoropiperidin-1-yl)(2-(1-(cyclopropylmethyl)-1H-indol-2-yl)-4-methoxy-3-methylbenzofuran-6-yl)methanone], the IC50 worked out at 487 nM. The value for `COc1cc(C(=O)N2C[C@H](N)C[C@@H](F)C2)cc2oc(-c3cc4ccc(-c5ccc(C(N)=O)c(Cl)c5)cc4n3CC3CC3)c(C)c12` [Example 162, 4-(2-(6-((3R,5R)-3-Amino-5-fluoropiperidine-1-carbonyl)-4-methoxy-3-methylbenzofuran-2-yl)-1-(cyclopropylmethyl)-1H-indol-6-yl)-2-chlorobenzamide] was 2290 nM; that for `COc1cc(C(=O)N2C[C@H](N)C[C@@H](F)C2)cc2oc(-c3cc4ccc(-c5cccc(O)c5F)cc4n3CC3CC3)c(C)c12` [Example 163, ((3R,5R)-3-Amino-5-fluoropiperidin-1-yl)(2-(1-(cyclopropylmethyl)-6-(2-fluoro-3-hydroxyphenyl)-1H-indol-2-yl)-4-methoxy-3-methylbenzofuran-6-yl)methanone] was 5590 nM; that for `Cc1c(-c2cc3cccnc3n2CC2CC2)oc2cc(C(=O)N3CC4CCC3[C@@H]4N)ccc12` (stereo partly drawn) [Example 164, ((7R)-7-Amino-2-azabicyclo[2.2.1]heptan-2-yl)(2-(1-(cyclopropylmethyl)-1H-pyrrolo[2,3-b]pyridin-2-yl)-3-methylbenzofuran-6-yl)methanone] was 625 nM. Take `Cc1c(-c2cc3ccc(Cl)nc3n2CC2CC2)oc2cc(C(=O)N3CC4CCC3[C@@H]4N)ccc12` (stereo partly drawn) [Example 165, ((7R)-7-Amino-2-azabicyclo[2.2.1]heptan-2-yl)(2-(6-chloro-1-(cyclopropylmethyl)-1H-pyrrolo[2,3-b]pyridin-2-yl)-3-methylbenzofuran-6-yl)methanone]: the half-inhibitory concentration (IC50) was found to be 198 nM. The value for `Cc1c(-c2cc3ccc(-c4ccc5c(c4)C(=O)NC5)nc3n2CC2CC2)oc2cc(C(=O)N3CC4CCC3[C@@H]4N)ccc12` (stereo partly drawn) [Example 166, 6-(2-(6-((7R)-7-Amino-2-azabicyclo[2.2.1]heptane-2-carbonyl)-3-methylbenzofuran-2-yl)-1-(cyclopropylmethyl)-1H-pyrrolo[2,3-b]pyridin-6-yl)isoindolin-1-one] was 56 nM; that for `Cc1c(-c2cc3ccc(-c4ccn5c(C)nnc5c4)nc3n2CC2CC2)oc2cc(C(=O)N3CC4CCC3[C@@H]4N)ccc12` (stereo partly shown) [Example 167] was 45 nM; that for `Cc1c(-c2cc3ccc(-c4ccc5c(c4)CNC5=O)nc3n2CC2CC2)oc2cc(C(=O)N3CC4CCC3[C@@H]4N)ccc12` (stereo partly drawn) [Example 168, 5-(2-(6-((7R)-7-Amino-2-azabicyclo[2.2.1]heptane-2-carbonyl)-3-methylbenzofuran-2-yl)-1-(cyclopropylmethyl)-1H-pyrrolo[2,3-b]pyridin-6-yl)isoindolin-1-one] was 47 nM.

Consider `Cc1c(-c2cc3ccc(-c4cccc(O)c4F)nc3n2CC2CC2)oc2cc(C(=O)N3CC4CCC3[C@@H]4N)ccc12` (stereo partly drawn) [Example 169, ((7R)-7-Amino-2-azabicyclo[2.2.1]heptan-2-yl)(2-(1-(cyclopropylmethyl)-6-(2-fluoro-3-hydroxyphenyl)-1H-pyrrolo[2,3-b]pyridin-2-yl)-3-methylbenzofuran-6-yl)methanone], for which the IC50 was 181 nM. The value for `Cc1c(-c2cc3ccc(-c4ccc(C(N)=O)c(F)c4)nc3n2CC2CC2)oc2cc(C(=O)N3CC4CCC3[C@@H]4N)ccc12` (stereo partly drawn) [Example 170, 4-(2-(6-((7R)-7-amino-2-azabicyclo[2.2.1]heptane-2-carbonyl)-3-methylbenzofuran-2-yl)-1-(cyclopropylmethyl)-1H-pyrrolo[2,3-b]pyridin-6-yl)-2-fluorobenzamide] was 135 nM; that for `Cc1ccc2cc(-c3oc4cc(C(=O)N5CC6CCC5[C@@H]6N)ccc4c3C)n(CC3CC3)c2n1` (stereo partly drawn) [Example 171, ((7R)-7-Amino-2-azabicyclo[2.2.1]heptan-2-yl)(2-(1-(cyclopropylmethyl)-6-methyl-1H-pyrrolo[2,3-b]pyridin-2-yl)-3-methylbenzofuran-6-yl)methanone] was 76 nM; that for `COc1cc(-c2ccc3cc(-c4oc5cc(C(=O)N6CC7CCC6[C@@H]7N)ccc5c4C)n(CC4CC4)c3n2)ccn1` (stereo partly drawn) [Example 172, ((7R)-7-Amino-2-azabicyclo[2.2.1]heptan-2-yl)(2-(1-(cyclopropylmethyl)-6-(2-methoxypyridin-4-yl)-1H-pyrrolo[2,3-b]pyridin-2-yl)-3-methylbenzofuran-6-yl)methanone] was 8770 nM.

For the molecule `COC1CN(c2ccc3cc(-c4oc5cc(C(=O)N6CC7CCC6[C@@H]7N)ccc5c4C)n(CC4CC4)c3n2)C1` (stereo partly drawn) [Example 173, ((7R)-7-Amino-2-azabicyclo[2.2.1]heptan-2-yl)(2-(1-(cyclopropylmethyl)-6-(3-methoxyazetidin-1-yl)-1H-pyrrolo[2,3-b]pyridin-2-yl)-3-methylbenzofuran-6-yl)methanone], the 50% inhibitory concentration (IC50) stood at 90 nM.

On to `Cc1c(-c2cc3cccnc3n2CC2CC2)oc2cc(C(=O)N3C[C@H](N)C[C@@H](F)C3)ccc12` [Example 174, ((3R,5R)-3-Amino-5-fluoropiperidin-1-yl)(2-(1-(cyclopropylmethyl)-1H-pyrrolo[2,3-b]pyridin-2-yl)-3-methylbenzofuran-6-yl)methanone], for which the 50% inhibitory concentration (IC50) was determined as 204 nM. The value for `Cc1c(-c2cc3ccc(-c4ccc5c(c4)C(=O)NC5)nc3n2CC2CC2)oc2cc(C(=O)N3C[C@H](N)C[C@@H](F)C3)ccc12` [Example 175, 6-(2-(6-((3R,5R)-3-Amino-5-fluoropiperidine-1-carbonyl)-3-methylbenzofuran-2-yl)-1-(cyclopropylmethyl)-1H-pyrrolo[2,3-b]pyridin-6-yl)isoindolin-1-one] was 830 nM; that for `Cc1c(-c2cc3ccccc3n2CC2CC2)oc2cc(C(=O)N3CC4CCC3[C@@H]4N)ccc12` (stereo partly drawn) [Example 176, ((7R)-7-Amino-2-azabicyclo[2.2.1]heptan-2-yl)(2-(1-(cyclopropylmethyl)-1H-indol-2-yl)-3-methylbenzofuran-6-yl)methanone] was 229 nM.

Usually IC50 stands for the concentration at which inhibition is half-maximal.
